Assay results as given in ChEMBL document CHEMBL3588774, “Tyrosyl-DNA Phosphodiesterase I Inhibitors from the Australian Plant Macropteranthes leichhardtii” (J Nat Prod, 2015).
Calls of active or inactive are those of the source. No cut-off for these calls is given here.

Key:
[1] = target: T1, Tyrosyl-DNA phosphodiesterase 1 (Homo sapiens, UniProt Q9NUW8); experiment: Inhibition of Tdp1 (unknown origin) up to 40 uM incubated for 30 mins using 5'-/6-TAMN/AGGATCTAAAAGACTT/3BHQ_2/-3' substrate by microplate reader based assay
[2] = target: T1, Tyrosyl-DNA phosphodiesterase 1; experiment: Inhibition of Tdp1 (unknown origin) incubated for 30 mins using 5'-/6-TAMN/AGGATCTAAAAGACTT/3BHQ_2/-3' substrate by microplate reader based assay

T1 sequence (Q9NUW8 whole entry): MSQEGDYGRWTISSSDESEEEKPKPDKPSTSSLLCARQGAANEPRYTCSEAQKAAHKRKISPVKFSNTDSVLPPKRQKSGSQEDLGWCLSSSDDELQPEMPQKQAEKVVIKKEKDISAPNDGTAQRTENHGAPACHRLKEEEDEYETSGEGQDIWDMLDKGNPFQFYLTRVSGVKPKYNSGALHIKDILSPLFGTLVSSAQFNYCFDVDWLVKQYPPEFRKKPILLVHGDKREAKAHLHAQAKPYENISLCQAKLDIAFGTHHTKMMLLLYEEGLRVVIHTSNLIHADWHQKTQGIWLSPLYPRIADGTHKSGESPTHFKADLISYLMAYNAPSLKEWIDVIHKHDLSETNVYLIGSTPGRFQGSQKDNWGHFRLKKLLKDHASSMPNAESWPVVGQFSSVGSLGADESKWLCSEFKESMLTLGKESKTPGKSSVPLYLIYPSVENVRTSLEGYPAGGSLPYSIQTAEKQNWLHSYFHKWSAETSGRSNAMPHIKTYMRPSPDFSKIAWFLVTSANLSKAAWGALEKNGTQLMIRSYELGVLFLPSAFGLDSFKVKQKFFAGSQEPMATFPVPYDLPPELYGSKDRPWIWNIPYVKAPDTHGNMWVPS

Compound | inhibition [1] | IC50 [2]
COc1cc(O[C@@H]2O[C@H](COC(=O)c3cc(O)c(O)c(O)c3)[C@@H](O)[C@H](O)[C@H]2O)cc(OC)c1OC | inactive | 
COc1cc([C@@H]2O[C@H]3[C@H](O[C@H]2COC(=O)c2cc(O)c(O)c(O)c2)O[C@H](CO)[C@@H](O)[C@@H]3O)ccc1O | inactive | 

Now from value to molecule:

inhibition [1] | IC50 [2] | Compound
 | 1000 nM | COc1cc(C[C@@H](CO)O[C@@H]2O[C@H](COC(=O)c3cc(O)c(O)c(O)c3)[C@@H](O)[C@H](O)[C@H]2O)ccc1O
 | 1000 nM | COc1ccc(O[C@@H]2O[C@H](COC(=O)c3cc(O)c(O)c(O)c3)[C@@H](O)[C@H](O)[C@H]2O)cc1OC
inactive |  | COc1cc([C@@H]2O[C@H]3[C@H](O[C@H]2CO)O[C@H](COC(=O)c2cc(O)c(O)c(O)c2)[C@@H](O)[C@@H]3O)ccc1O
